From patent US10000438B2, “Small molecule inhibitors of TRPA1” (B.R.A.I.N. Biotechnology Research and Information Network AG, priority 2011, dated 2018)
Read-outs that look alike come from different tables or passages of the source.

Experiments:
human TRPM8 = biological target: T1, human TRPM8 (Homo sapiens, UniProt Q7Z2W7); experiment: Test for cross-selectivity on TRPM8: calcium assay in HEK293 cells expressing recombinant human TRPM8; type: cell-based
T1 construct: expressed in transfected cells; host or cells: HEK293 (tetracycline-regulated promoter)
Description: The test for cross-selectivity of the compounds on TRPM8 was performed in much the same way as the initial screening on TRPA1 (described in example 3). A HEK293 cell line expressing recombinant human TRPM8 under the control of a tetracycline-regulated promoter was used. Cells were cultured under the conditions mentioned in example 3. Functional modulation of TRPM8 was measured and quantified using the calcium sensitive fluorescent probe Fluo-4 AM on a fluorescence microplate reader. The assay was performed as described in example 3. Changes in fluorescence were recorded at 26-30° C. after addition of the compounds and/or the TRPM8 agonist menthol (EC80=12 μM). Dose-response curves are shown in FIGS. 5 to 9 (calcium assay) against menthol, which is known to trigger both TRPA1 as well as TRPM8. In particular, the antagonistic activity of compound I.3, II.3, III.3, IV.3 and V.3 at TRPA1 (open circles, continuous line) as well as the antagonistic activity of said compounds at TRPM8 (filled squares, dotted line) was measured and compared. Activation of the two ion channels was triggered by addition of menthol (EC80[TRPA1]=35 μM and EC80[TRPM8]=12 μM). The receptor signals were normalized to the pure menthol signal in each case.

TRPA1 [1] = biological target: T2, TRPA1 (Homo sapiens, UniProt O75762); experiment: Cell-based calcium assay (Fluo-4 fluorescence) in HEK293 cells expressing recombinant human TRPA1; parameters: expressed in transfected cells
Description: The HEK293 cell line expressing recombinant human TRPA1 under the control of a tetracycline-regulated promoter was used in this assay (cf. example 2). Functional modulation of TRPA1 by the tested compounds was measured and quantified using the calcium sensitive fluorescent probe […] on a fluorescence microplate reader. Activation of TRPA1 by an agonist led to an increase in the intracellular calcium concentration and thus an increase in fluorescence intensity.
Procedure: Cells were cultured in DMEM (high glucose) supplemented with tetracycline-free FCS (10% v/v), L-glutamine (4 mM), blasticidin (15 μg/ml) and hygromycin (100 μg/mL) in a water-saturated atmosphere at 37° C. and 5% CO2. Cells were seeded onto 96-well clear-bottom black-walled assay plates at a density of 70,000 cells per well in 100 μl of cell culture medium. Expression of the ion channel was induced or not induced by addition of tetracycline (1 μg/ml final concentration) to the cell culture medium (while seeding the cells). Calcium influx into the living cells due to channel activation was monitored 24 h later using the calcium sensitive fluorescent probe […] on a fluorescence microplate reader (FlexStation® system, Molecular Devices). Therefore 100 μl Krebs-HEPES (KH) buffer (118 mM NaCl; 4.7 mM KCl; 1.3 mM CaCl2; 1.2 mM MgSO4; 1.2 mM KH2PO4; 4.2 mM NaHCO3; 10 mM Hepes, pH 7.4) supplemented with sulfinpyrazone (250 μM) and […] (4 μM) were added and the cells were incubated for an additional hour in a water-saturated atmosphere at 37° C. and 5% CO2.
Measurement of agonistic activity: Medium was replaced with 200 μl KH buffer supplemented with sulfinpyrazone (250 μM). Subsequently, 50 μl KH buffer supplemented with the agonists or control substances were added. Changes in fluorescence were recorded at 20-26° C.
Measurement of antagonistic activity (screening): Medium was replaced with 150 μl KH buffer supplemented with sulfinpyrazone (250 μM). Subsequently, 50 μl KH buffer supplemented with the screening compounds (50 μM; leading to a final concentration of 10 μM under measurement conditions) or control substances were added and the cells were incubated for 10 min. under assay conditions in the microplate reader. Changes in fluorescence were recorded at 20-26° C. after addition of 50 μl KH buffer supplemented with the TRPA1 agonist menthol (175 μM; leading to a final concentration of 35 μM under measurement conditions). The published TRPA1 antagonist AP-18 (Petrus, 2007) was used as a control for TRPA1-specific […] activity. Subsequently, the inventive compounds were tested for their capacity to reduce signals triggered by addition of propylparaben (EC80=80 μM), retinol (EC80=150 μM), and allyl isothiocyanate (EC80=5 μM) (cf. Table 2).
Analysis: Calcium mobilization was quantified as the change of peak fluorescence (ΔF) over the baseline level (F). The data was analyzed with the software of the microplate reader. Potential TRPA1 antagonists were tested in an effective range of 0.1-50 μM for their capacity to reduce the menthol-evoked signal.

TRPA1 [2] = biological target: T2, TRPA1; experiment: Cell-based (label-free) impedance assay in HaCaT cells
TRPA1 [3] = biological target: T2, TRPA1; experiment: Blinded in vivo study on the lid-cheek junction, stinging/burning induced by flufenamic acid; parameters: from tissue; host or cells: facial skin (lid-cheek junction) of human volunteers; conditions: compound 0.05% pre-incubated on one side of face, placebo on other; flufenamic acid 0.75%; 16 persons, two felt no stimulus
Description: Antagonistic in vivo activity at TRPA1 was tested in a blinded study on the lid-cheek junction of 16 test persons. The ion channel was stimulated using a known TRPA1 agonist: flufenamic acid, a member of the group of NSAIDs (non-steroidal anti-inflammatory drugs) (Hu et al., 2010). The concentration of flufenamic acid was adjusted to a level that induced a pronounced stinging/burning sensation in the majority of the testers (0.75%).
Procedure: One side of the face (the lid-cheek junction) was pre-incubated with the antagonist (compound I.3, 0.05%)—the other side with placebo. Afterwards, flufenamic acid was applied to both sides simultaneously. Testers were asked several questions regarding their individual perception of irritation.
Analysis: Testers were asked if they could feel the NSAID-triggered stinging/burning. The strength of the stimulus was not judged. Then they were asked if they could perceive a difference between the two areas. If the answer was yes, they were asked which side was perceived as more pleasant. The antagonistic effect was graded in three categories: no reduction, reduction and strong reduction of the irritation. 10 out of 14 testers perceived a soothing effect by the use of the antagonist (two individuals felt no stimulus at all).

[4] = agonist allyl isothiocyanate at EC80 (5 μM), read-out: Antagonistic activity (IC50) against Allyl isothiocyanate
[5] = agonist menthol at EC80 (35 μM final), read-out: Antagonistic activity (IC50) against Menthol
[6] = agonist propylparaben at EC80 (80 μM), read-out: Antagonistic activity (IC50) against Propylparaben
[7] = agonist retinol at EC80 (150 μM), read-out: Antagonistic activity (IC50) against Retinol

T2 sequence (O75762 whole entry): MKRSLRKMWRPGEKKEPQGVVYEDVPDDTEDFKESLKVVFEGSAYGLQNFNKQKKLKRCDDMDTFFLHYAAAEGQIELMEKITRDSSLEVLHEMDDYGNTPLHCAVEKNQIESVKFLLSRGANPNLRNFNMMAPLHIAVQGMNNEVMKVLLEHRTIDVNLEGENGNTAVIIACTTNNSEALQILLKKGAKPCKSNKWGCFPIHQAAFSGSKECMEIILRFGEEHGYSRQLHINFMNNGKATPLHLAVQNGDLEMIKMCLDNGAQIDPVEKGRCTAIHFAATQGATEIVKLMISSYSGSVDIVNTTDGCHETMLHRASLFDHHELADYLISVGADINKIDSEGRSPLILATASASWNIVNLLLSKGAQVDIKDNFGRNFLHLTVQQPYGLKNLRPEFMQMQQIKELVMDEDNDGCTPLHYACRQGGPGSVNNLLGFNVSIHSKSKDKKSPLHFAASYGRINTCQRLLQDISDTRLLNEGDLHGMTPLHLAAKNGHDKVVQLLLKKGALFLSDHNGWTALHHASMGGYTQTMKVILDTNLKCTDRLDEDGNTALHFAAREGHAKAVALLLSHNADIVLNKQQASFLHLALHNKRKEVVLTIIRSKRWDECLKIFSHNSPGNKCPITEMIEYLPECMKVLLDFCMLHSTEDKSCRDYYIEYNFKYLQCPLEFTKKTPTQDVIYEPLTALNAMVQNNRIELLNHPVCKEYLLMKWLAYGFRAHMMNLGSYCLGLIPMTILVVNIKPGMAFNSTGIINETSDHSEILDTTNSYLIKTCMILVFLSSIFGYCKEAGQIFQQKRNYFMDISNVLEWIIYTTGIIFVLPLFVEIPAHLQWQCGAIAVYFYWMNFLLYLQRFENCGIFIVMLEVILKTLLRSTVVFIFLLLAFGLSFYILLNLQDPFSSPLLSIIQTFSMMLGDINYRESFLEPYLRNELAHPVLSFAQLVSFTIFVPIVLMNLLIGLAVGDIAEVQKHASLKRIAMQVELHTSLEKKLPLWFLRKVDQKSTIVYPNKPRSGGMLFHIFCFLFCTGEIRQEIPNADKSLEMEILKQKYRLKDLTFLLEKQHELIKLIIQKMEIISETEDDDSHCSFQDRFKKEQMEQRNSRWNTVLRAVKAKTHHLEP
T1 sequence (Q7Z2W7 whole entry): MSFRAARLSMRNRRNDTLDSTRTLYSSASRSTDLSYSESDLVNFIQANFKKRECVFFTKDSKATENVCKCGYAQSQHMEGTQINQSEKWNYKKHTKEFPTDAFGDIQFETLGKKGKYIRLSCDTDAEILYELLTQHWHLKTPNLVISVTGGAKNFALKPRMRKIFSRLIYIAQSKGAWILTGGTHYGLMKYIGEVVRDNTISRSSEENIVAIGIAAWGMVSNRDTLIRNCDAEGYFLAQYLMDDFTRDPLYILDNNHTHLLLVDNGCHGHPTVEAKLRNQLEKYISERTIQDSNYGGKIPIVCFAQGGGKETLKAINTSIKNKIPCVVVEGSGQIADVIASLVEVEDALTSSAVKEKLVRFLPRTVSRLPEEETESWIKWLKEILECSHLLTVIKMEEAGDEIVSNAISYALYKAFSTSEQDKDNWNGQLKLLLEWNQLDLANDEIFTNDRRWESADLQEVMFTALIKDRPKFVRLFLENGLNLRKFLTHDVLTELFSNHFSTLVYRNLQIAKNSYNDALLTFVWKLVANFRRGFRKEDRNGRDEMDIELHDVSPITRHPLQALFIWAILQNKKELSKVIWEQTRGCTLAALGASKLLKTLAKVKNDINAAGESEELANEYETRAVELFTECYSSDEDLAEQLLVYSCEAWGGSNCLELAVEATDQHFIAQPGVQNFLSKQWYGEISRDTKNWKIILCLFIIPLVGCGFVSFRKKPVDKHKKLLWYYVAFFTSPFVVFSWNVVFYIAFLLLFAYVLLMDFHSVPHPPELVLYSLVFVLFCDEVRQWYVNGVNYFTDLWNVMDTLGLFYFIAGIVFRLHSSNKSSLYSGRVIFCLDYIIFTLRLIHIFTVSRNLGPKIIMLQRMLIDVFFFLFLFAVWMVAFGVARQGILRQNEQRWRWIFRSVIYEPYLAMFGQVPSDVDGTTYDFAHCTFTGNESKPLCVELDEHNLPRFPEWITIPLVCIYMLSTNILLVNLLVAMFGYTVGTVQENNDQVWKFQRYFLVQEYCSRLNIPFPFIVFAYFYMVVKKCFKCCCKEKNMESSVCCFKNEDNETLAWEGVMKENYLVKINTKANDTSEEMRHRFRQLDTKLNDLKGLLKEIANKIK

Compound	Agonistic efficacy at TRPM8 (EC80) (human TRPM8) [µM]	Agonistic efficacy at TRPA1 (EC80) (TRPA1 [1]) [µM]	Agonistic efficacy at TRPA1 (EC80) (TRPA1 [2]) [µM]	IC50 (TRPA1 [1]; [4]) [µM]	IC50 (TRPA1 [1]; [5]) [µM]	IC50 (TRPA1 [1]; [6]) [µM]	IC50 (TRPA1 [1]; [7]) [µM]	Testers who perceived a soothing effect by the use of the antagonist (TRPA1 [3])
CC1CCC(C(C)C)C(O)C1 (centres unmarked) [menthol, 2-isopropyl-5-methyl-cyclohexanol, reference compound]	12	35	–	–	–	–	–	–
CCCOC(=O)c1ccc(O)cc1 [propylparaben, reference compound]	–	80	200	–	–	–	–	–
C=CCN=C=S [allyl isothiocyanate, reference compound]	–	5	–	–	–	–	–	–
Cc1cc(/C=C2\C(=N)N3N=C(CC(=O)N4CCCC4)SC3=NC2=O)c(C)n1-c1cccc(Cl)c1 [Compound IV.3]	–	–	–	3.5	0.3	4.3	3.3	–
COC(=O)c1ccc(/C=C(\C#N)C(=O)Nc2ccccc2F)cc1 [Compound III.3]	–	–	–	1.2	0.1	0.4	0.4	–
CC(C)c1ccc2c(c1)CCC1[C@](C)(C(=O)O)CCC[C@]21C (some centres unmarked) [Compound V.3]	–	–	–	26	4.5	26	14	–
CC1=C(/C=C/C(C)=C/C=C/C(C)=C/CO)C(C)(C)CCC1 [retinol, reference compound]	–	150	–	–	–	–	–	–
COc1cc(C(=O)OC2CC3CCC2(C)C3(C)C)ccc1OC(C)=O (centres unmarked) [Compound I.3]	–	–	–	2.5	3.5	4.7	3.4	10 out of 14
